# According to EP1614683B1, “Indazole compounds and pharmaceutical compositions for inhibiting protein kinases, and methods for their use” (priority 1999, dated 2001):
# Conditions: mouse, in vivo, ip, 25 mg/kg, 420 min, pH 2.3
row,Structure (SMILES),Cmin (7 hr conc.)
1,Cc1cc(C(=O)Nc2cccc(C(=O)c3ccc4c(/C=C/c5ccccn5)n[nH]c4c3)c2)n[nH]1 [41 (g)],0 ng/mL

# Same assay, conditions: mouse, in vivo, ip, 25 mg/kg, 7 h, pH 2.3
row,Structure (SMILES),Cmin (7 hr conc.)
1,O=C(NCC(F)(F)F)c1ccccc1Sc1ccc2c(/C=C/c3ccccn3)n[nH]c2c1 [33 (f)],6 ng/mL
2,C#CCNC(=O)c1ccccc1Sc1ccc2c(/C=C/c3ccccn3)n[nH]c2c1 [35 (cc)],6 ng/mL
3,C=C(C)CNC(=O)c1ccccc1Sc1ccc2c(/C=C/c3ccccn3)n[nH]c2c1 [35 (ee)],2 ng/mL
4,Cc1ccc(CNC(=O)c2ccccc2Sc2ccc3c(/C=C/c4ccccn4)n[nH]c3c2)o1 [35 (h)],1 ng/mL
5,O=C(Nc1nccs1)c1ccccc1Sc1ccc2c(/C=C/c3ccccn3)n[nH]c2c1 [35 (y)],2 ng/mL

# Same assay, conditions: mouse, in vivo, ip, 25 mg/kg, pH 2.3
Structure (SMILES),AUCleast,T1/2
O=C(Nc1cccc(Cl)c1)c1ccccc1Sc1ccc2c(/C=C/c3ccccn3)n[nH]c2c1 [33 (d)],5080 ng·h/mL,1.6 h
O=C(NC1CC1)c1ccccc1Sc1ccc2c(/C=C/c3ccccn3)n[nH]c2c1 [33 (e)],14323 ng·h/mL,1.0 h
O=C(NCC(F)(F)F)c1ccccc1Sc1ccc2c(/C=C/c3ccccn3)n[nH]c2c1 [33 (f)],1887 ng·h/mL,2.4 h
CC(C)NC(=O)c1ccccc1Sc1ccc2c(/C=C/c3ccccn3)n[nH]c2c1 [35 (b)],2840 ng·h/mL,0.8 h
O=C(NC1CCC1)c1ccccc1Sc1ccc2c(/C=C/c3ccccn3)n[nH]c2c1 [35 (c)],9408 ng·h/mL,3.2 h
C#CCNC(=O)c1ccccc1Sc1ccc2c(/C=C/c3ccccn3)n[nH]c2c1 [35 (cc)],2223 ng·h/mL,1.4 h
CCONC(=O)c1ccccc1Sc1ccc2c(/C=C/c3ccccn3)n[nH]c2c1 [35 (dd)],> 23046 ng·h/mL,4.1 h
Cn1cccc1C(=O)NNC(=O)c1ccccc1Sc1ccc2c(/C=C/c3ccccn3)n[nH]c2c1 [35 (e)],2409 ng·h/mL,1.8 h
C=C(C)CNC(=O)c1ccccc1Sc1ccc2c(/C=C/c3ccccn3)n[nH]c2c1 [35 (ee)],546 ng·h/mL,1.5 h
O=C(NCc1ccccc1F)c1ccccc1Sc1ccc2c(/C=C/c3ccccn3)n[nH]c2c1 [35 (f)],397 ng·h/mL,3.8 h
O=C(NCc1cccc(F)c1)c1ccccc1Sc1ccc2c(/C=C/c3ccccn3)n[nH]c2c1 [35 (ff)],> 6301 ng·h/mL,–
Cc1ccc(CNC(=O)c2ccccc2Sc2ccc3c(/C=C/c4ccccn4)n[nH]c3c2)o1 [35 (h)],59 ng·h/mL,1.5 h
C=CCONC(=O)c1ccccc1Sc1ccc2c(/C=C/c3ccccn3)n[nH]c2c1 [35 (j)],9531 ng·h/mL,1.3 h
CC(C)ONC(=O)c1ccccc1Sc1ccc2c(/C=C/c3ccccn3)n[nH]c2c1 [35 (k)],2640 ng·h/mL,1.4 h
O=C(NNC(=O)c1ccccc1Sc1ccc2c(/C=C/c3ccccn3)n[nH]c2c1)c1cccs1 [35 (m)],226 ng·h/mL,4.0 h
O=C(NCC1CC1)c1ccccc1Sc1ccc2c(/C=C/c3ccccn3)n[nH]c2c1 [35 (v)],4865 ng·h/mL,0.9 h
CCNC(=O)c1ccccc1Sc1ccc2c(/C=C/c3ccccn3)n[nH]c2c1 [35 (x)],951 ng·h/mL,3.2 h
O=C(Nc1nccs1)c1ccccc1Sc1ccc2c(/C=C/c3ccccn3)n[nH]c2c1 [35 (y)],159 ng·h/mL,1.2 h
CCOCCNC(=O)c1ccccc1Sc1ccc2c(/C=C/c3ccccn3)n[nH]c2c1 [35 (z)],837 ng·h/mL,1.8 h
O=C(Nc1cccc(C(=O)c2ccc3c(/C=C/c4ccccn4)n[nH]c3c2)c1)c1ccncc1 [41 (b)],> 5868 ng·h/mL,4.7 h
Cc1cc(C(=O)Nc2cccc(C(=O)c3ccc4c(/C=C/c5ccccn5)n[nH]c4c3)c2)n[nH]1 [41 (g)],1925 ng·h/mL,0.3 h

# Same assay, conditions: mouse, in vivo, po, 10 mg/kg, pH 2.3
Structure (SMILES),AUCleast,T1/2
Cc1cccc(C(=O)Nc2cccc(Oc3ccc4c(/C=C/c5ccccc5)n[nH]c4c3)c2)c1 [5 (b)],61 ng·h/mL,3.1 h

# Same assay, conditions: mouse, in vivo, po, 25 mg/kg
Structure (SMILES),AUCleast,T1/2
CCONC(=O)c1ccccc1Sc1ccc2c(/C=C/c3ccccn3)n[nH]c2c1 [35 (dd)],1360 ng·h/mL,2.0 h

# Same assay, conditions: mouse, in vivo, po, 25 mg/kg, 420 min, pH 2.3
row,Structure (SMILES),Cmin (7 hr conc.)
1,O=C(NNC(=O)c1ccccc1Sc1ccc2c(/C=C/c3ccccn3)n[nH]c2c1)c1cccs1 [35 (m)],0 ng/mL

# Same assay, conditions: mouse, in vivo, po, 25 mg/kg, 7 h, pH 2.3
row,Structure (SMILES),Cmin (7 hr conc.)
1,C=C(C)CNC(=O)c1ccccc1Sc1ccc2c(/C=C/c3ccccn3)n[nH]c2c1 [35 (ee)],9 ng/mL
2,O=C(NCCc1cccs1)c1ccccc1Sc1ccc2c(/C=C/c3ccccn3)n[nH]c2c1 [35 (hh)],5 ng/mL
3,O=C(NCc1ccncc1)c1ccccc1Sc1ccc2c(/C=C/c3ccccn3)n[nH]c2c1 [35 (p)],5 ng/mL
4,CC(C)ONC(=O)c1cccc(F)c1Sc1ccc2c(/C=C/c3ccccn3)n[nH]c2c1 [37 (c)],9 ng/mL
5,CC(C)=CC(=O)Nc1cccc(C(=O)c2ccc3c(/C=C/c4ccccn4)n[nH]c3c2)c1 [41 (dd)],1 ng/mL

# Same assay, conditions: mouse, in vivo, po, 25 mg/kg, pH 2.3
Structure (SMILES),AUCleast,T1/2,Cmin (7 hr conc.)
COc1cccc(CNC(=O)c2ccccc2Sc2ccc3c(/C=C/c4ccccn4)n[nH]c3c2)c1 [35 (aa)],4036 ng·h/mL,2.1 h,–
CCONC(=O)c1ccccc1Sc1ccc2c(/C=C/c3ccccn3)n[nH]c2c1 [35 (dd)],> 6521 ng·h/mL,1.4 h,–
C=C(C)CNC(=O)c1ccccc1Sc1ccc2c(/C=C/c3ccccn3)n[nH]c2c1 [35 (ee)],157 ng·h/mL,14.6 h,–
O=C(NCc1cccc(F)c1)c1ccccc1Sc1ccc2c(/C=C/c3ccccn3)n[nH]c2c1 [35 (ff)],Blq,–,blq
COc1ccc(CNC(=O)c2ccccc2Sc2ccc3c(/C=C/c4ccccn4)n[nH]c3c2)cc1 [35 (g)],231 ng·h/mL,16.1 h,–
O=C(NCCc1cccs1)c1ccccc1Sc1ccc2c(/C=C/c3ccccn3)n[nH]c2c1 [35 (hh)],292 ng·h/mL,1.7 h,–
O=C(NNC(=O)c1ccccc1Sc1ccc2c(/C=C/c3ccccn3)n[nH]c2c1)c1cccs1 [35 (m)],10 ng·h/mL,–,–
O=C(NCc1ccncc1)c1ccccc1Sc1ccc2c(/C=C/c3ccccn3)n[nH]c2c1 [35 (p)],1435 ng·h/mL,1.3 h,–
CONC(=O)c1ccccc1Sc1ccc2c(/C=C/c3ccccn3)n[nH]c2c1 [35 (r)],4261 ng·h/mL,1.3 h,–
CCCONC(=O)c1ccccc1Sc1ccc2c(/C=C/c3ccccn3)n[nH]c2c1 [35 (t)],3199 ng·h/mL,1.1 h,–
Cn1ccnc1/C=N/NC(=O)c1ccccc1Sc1ccc2c(/C=C/c3ccccn3)n[nH]c2c1 [36 (a)],605 ng·h/mL,1.5 h,–
CC(C)ONC(=O)c1cccc(F)c1Sc1ccc2c(/C=C/c3ccccn3)n[nH]c2c1 [37 (c)],2419 ng·h/mL,1.2 h,–
CNC(=O)c1ccccc1Nc1ccc2c(/C=C/c3ccccn3)n[nH]c2c1 [39 (a)],> 14848 ng·h/mL,1.4 h,–
C#CCNC(=O)c1ccccc1Nc1ccc2c(/C=C/c3ccccn3)n[nH]c2c1 [39 (b)],> 30972 ng·h/mL,11.8 h,–
CC(C)=CC(=O)Nc1cccc(C(=O)c2ccc3c(/C=C/c4ccccn4)n[nH]c3c2)c1 [41 (dd)],654 ng·h/mL,0.8 h,–
C=CCn1nc(C)cc1C(=O)Nc1cc(C(=O)c2ccc3c(/C=C/c4ccccn4)n[nH]c3c2)ccc1C [41 (ff)],9176 ng·h/mL,2.0 h,–
Cc1cnccc1C(=O)Nc1cccc(C(=O)c2ccc3c(/C=C/c4ccccn4)n[nH]c3c2)c1 [41 (j)],1476 ng·h/mL,1.3 h,–
Cc1cc(C(=O)Nc2cc(C(=O)c3ccc4c(/C=C/c5ccccn5)n[nH]c4c3)ccc2C)n(C(C)C)n1 [41 (kk)],11612 ng·h/mL,2.0 h,–

# Same assay, conditions: mouse, in vivo, po, 50 mg/kg, 7 h, pH 2.3
row,Structure (SMILES),Cmin (7 hr conc.)
1,O=C(Nc1cccc(Cl)c1)c1ccccc1Sc1ccc2c(/C=C/c3ccccn3)n[nH]c2c1 [33 (d)],8 ng/mL
2,O=C(NCC(F)(F)F)c1ccccc1Sc1ccc2c(/C=C/c3ccccn3)n[nH]c2c1 [33 (f)],3 ng/mL
3,C#CCNC(=O)c1ccccc1Sc1ccc2c(/C=C/c3ccccn3)n[nH]c2c1 [35 (cc)],5 ng/mL
4,Cn1cccc1C(=O)NNC(=O)c1ccccc1Sc1ccc2c(/C=C/c3ccccn3)n[nH]c2c1 [35 (e)],6 ng/mL
5,Cc1ccc(CNC(=O)c2ccccc2Sc2ccc3c(/C=C/c4ccccn4)n[nH]c3c2)o1 [35 (h)],2 ng/mL
6,C=CCONC(=O)c1ccccc1Sc1ccc2c(/C=C/c3ccccn3)n[nH]c2c1 [35 (j)],5 ng/mL
7,O=C(Nc1nccs1)c1ccccc1Sc1ccc2c(/C=C/c3ccccn3)n[nH]c2c1 [35 (y)],1 ng/mL
8,O=C(Nc1cccc(C(=O)c2ccc3c(/C=C/c4ccccn4)n[nH]c3c2)c1)c1ccncc1 [41 (b)],6 ng/mL
9,Cc1cc(C(=O)Nc2cccc(C(=O)c3ccc4c(/C=C/c5ccccn5)n[nH]c4c3)c2)n[nH]1 [41 (g)],1 ng/mL

# Same assay, conditions: mouse, in vivo, po, 50 mg/kg, pH 2.3
Structure (SMILES),AUCleast,T1/2
O=C(Nc1cccc(Cl)c1)c1ccccc1Sc1ccc2c(/C=C/c3ccccn3)n[nH]c2c1 [33 (d)],4744 ng·h/mL,0.9 h
O=C(NC1CC1)c1ccccc1Sc1ccc2c(/C=C/c3ccccn3)n[nH]c2c1 [33 (e)],13290 ng·h/mL,0.7 h
O=C(NCC(F)(F)F)c1ccccc1Sc1ccc2c(/C=C/c3ccccn3)n[nH]c2c1 [33 (f)],1436 ng·h/mL,0.7 h
CC(C)NC(=O)c1ccccc1Sc1ccc2c(/C=C/c3ccccn3)n[nH]c2c1 [35 (b)],4048 ng·h/mL,0.8 h
O=C(NC1CCC1)c1ccccc1Sc1ccc2c(/C=C/c3ccccn3)n[nH]c2c1 [35 (c)],4744 ng·h/mL,4.9 h
C#CCNC(=O)c1ccccc1Sc1ccc2c(/C=C/c3ccccn3)n[nH]c2c1 [35 (cc)],1718 ng·h/mL,0.9 h
Cn1cccc1C(=O)NNC(=O)c1ccccc1Sc1ccc2c(/C=C/c3ccccn3)n[nH]c2c1 [35 (e)],1503 ng·h/mL,0.9 h
O=C(NCc1ccccc1F)c1ccccc1Sc1ccc2c(/C=C/c3ccccn3)n[nH]c2c1 [35 (f)],358 ng·h/mL,3.6 h
Cc1ccc(CNC(=O)c2ccccc2Sc2ccc3c(/C=C/c4ccccn4)n[nH]c3c2)o1 [35 (h)],26 ng·h/mL,–
C=CCONC(=O)c1ccccc1Sc1ccc2c(/C=C/c3ccccn3)n[nH]c2c1 [35 (j)],1328 ng·h/mL,4.5 h
CC(C)ONC(=O)c1ccccc1Sc1ccc2c(/C=C/c3ccccn3)n[nH]c2c1 [35 (k)],5529 ng·h/mL,1.4 h
O=C(NCC1CC1)c1ccccc1Sc1ccc2c(/C=C/c3ccccn3)n[nH]c2c1 [35 (v)],>2946 ng·h/mL,1.0 h
CCNC(=O)c1ccccc1Sc1ccc2c(/C=C/c3ccccn3)n[nH]c2c1 [35 (x)],3516 ng·h/mL,0.9 h
O=C(Nc1nccs1)c1ccccc1Sc1ccc2c(/C=C/c3ccccn3)n[nH]c2c1 [35 (y)],58 ng·h/mL,1.2 h
CCOCCNC(=O)c1ccccc1Sc1ccc2c(/C=C/c3ccccn3)n[nH]c2c1 [35 (z)],1001 ng·h/mL,1.6 h
O=C(Nc1cccc(C(=O)c2ccc3c(/C=C/c4ccccn4)n[nH]c3c2)c1)c1ccncc1 [41 (b)],759 ng·h/mL,1.1 h
Cc1cc(C(=O)Nc2cccc(C(=O)c3ccc4c(/C=C/c5ccccn5)n[nH]c4c3)c2)n[nH]1 [41 (g)],508 ng·h/mL,0.7 h
